Assay results: patent US7470714B2, “GM-95-containing antitumor effect potentiator, combined antitumor preparation and antitumor agent” (Sosei Co., Ltd., priority 2003, dated 2008)

Assays:
[1] = system: K562 cells; experiment: Apoptosis induction into K562 cells by combined use, flow cytometry with APO 2.7 antibody; assay type: cell-based; settings: K562 cells cultured 10 days with 2 μM Telomestatin, then 72 hours with the antitumor substance
Procedure: K562 cells (available from ATCC (Rockville, Md.)) were cultured for 10 days in the presence of 2 μM Telomestatin (GM-95 substance). Subsequently, the Telomestatin-treated K562 cells were incubated for 72 hours together with Imanitib, Daunorubicin (DNR), Mitoxantrone (MIT), or Vincristine (VCR). The expression of apoptosis was measured by flow cytometric analysis using an FITC conjugate APO 2.7 monoclonal antibody (which is generated to a mitochondrial membrane protein (7A6 antigen) and is expressed in cells wherein apoptosis takes place). In the figures, the terms “control,” “TMS,” “Imanitib,” “DNR,” “MIT,” and “VCR” represent a control substance, the GM-95 substance (Telomestatin), Imanitib, Daunorubicin, Mitoxantrone, and Vincristine, respectively.

[2] = system: several types of cancer cells; experiment: Action of the GM-95 substance on several types of cancer cells; assay type: cell-based
Procedure: The inventors have already reported the details thereof (refer to International Publication WO00/24747, for example). The GM-95 substance is the strongest telomerase inhibitor among telomerase inhibitors including synthetic compounds that have been reported to date. The action of the GM-95 substance on several types of cancer cells was analyzed. […] In addition, the aged cells had lost their tumorigenicity.

[3] = system: MCF-7 cells; experiment: Combined use of GM-95 substance with another antitumor substance, survival rate by MTT method; assay type: cell-based; settings: 1 μM or 2 μM GM-95 for 7 or 14 days, then 2 days with antitumor substance
Procedure: Tumor cells were cultured under the conditions described below using the GM-95 substance and another antitumor substance in the same manner as in Example 5. After a certain period of time had passed, the survival rate of the tumor cells was measured.
MCF-7 cells were used as tumor cells. In the following experiments, the tumor cells were cultured in a medium formed by adding 10% FBS to DMEM (SIGMA, D6046) using a CO2 incubator (temperature: 37° C.; humidity: 100%; CO2 concentration: 5%).
MCF-7 cells were cultured under conditions described in the following (D) and (E). After completion of the culture, the survival rate of the tumor cells was measured by the MTT method. • (D): The tumor cells were previously cultured for 7 days together with 1 μM or 2 μM GM-95 substance. Thereafter, each of the aforementioned antitumor substances with a certain concentration was added to the cells in the absence of the GM-95 substance, followed by culture for 2 days. After completion of the culture, the survival rate of the tumor cells was measured. • (E): The tumor cells were previously cultured for 14 days together with 1 μM or 2 μM GM-95 substance. […] After completion of the culture, the survival rate of the tumor cells was measured. […]

[4] = Solubility in solvents; assay type: physicochemical
[5] = system: HT1080 cells; experiment: Combined use of GM-95 substance with another antitumor substance, survival rate by MTT method; assay type: cell-based
Procedure: Tumor cells were cultured under the conditions described below using the GM-95 substance and another antitumor substance in the same manner as in Example 3. After a certain period of time had passed, the survival rate of the tumor cells was measured.
HT1080 cells were used as tumor cells. In the following experiments, the tumor cells were cultured in a medium formed by adding 10% FBS to RPMI1640 (SIGMA, R8758) using a CO2 incubator (temperature: 37° C.; humidity: 100%; CO2 concentration: 5%).
HT1080 cells were cultured under conditions described in the following (A) to (C). After completion of the culture, the survival rate of the tumor cells was measured by the MTT method. • (A): 0.5 μM GM-95 substance and each of the aforementioned antitumor substances with a certain concentration were simultaneously added to the HT1080 cells, and the tumor cells were then cultured for 2 days. After completion of the culture, the survival rate of the tumor cells was measured. • (B): The tumor cells were previously cultured for 7 days together with 0.5 μM or 1 μM GM-95 substance. […] After completion of the culture, the survival rate of the tumor cells was measured. • (C): The tumor cells were previously cultured for 7 or 14 days together with 0.5 μM or 1 μM GM-95 substance. […] After completion of the culture, the survival rate of the tumor cells was measured. […]

SMILES: Cc1ccc(NC(=O)c2ccc(CN3CCN(C)CC3)cc2)cc1Nc1nccc(-c2cccnc2)n1 [Imanitib]
- Effect of inducing apoptosis by combined use of Telomestatin with another antitumor substance [1]: act synergistically

SMILES: O=C1c2c(O)ccc(O)c2C(=O)c2c(NCCNCCO)ccc(NCCNCCO)c21 [Mitoxantrone]
- Effect of inducing apoptosis by combined use of Telomestatin with another antitumor substance [1]: act synergistically

SMILES: Cc1oc2nc1-c1nc(co1)-c1nc(co1)-c1nc(co1)-c1nc(co1)-c1nc(co1)C1=NC(CS1)c1nc-2c(C)o1 (stereo not drawn) [GM-95]
- Induction of aging of cells attended with telomere shortening [2]: induces the aging of cells
- Antitumor action by combined use of the GM-95 substance with another antitumor substance (survival rate) [3]: enhanced
- Solubility in acetone ([4]; acetone): insoluble
- Solubility in a mixture consisting of chloroform and methanol (1:1) ([4]; chloroform and methanol (1:1)): soluble
- Solubility in water ([4]; water): insoluble
- Antitumor action by combined use of the GM-95 substance with another antitumor substance (survival rate) ([5]; HT1080, 0.5 μM or 1 μM GM-95, simultaneous or 7 or 14 days pre-treatment, then 2 days with antitumor substance): enhanced
- Number of surviving cells ([5]; HT1080 cultured for 14 days in the presence of 1 μM GM-95 substance): very small
- Effect of inducing apoptosis by combined use of Telomestatin with another antitumor substance [1]: act synergistically

SMILES: CC[C@]1(O)C[C@H]2CN(CCc3c([nH]c4ccccc34)[C@@](C(=O)OC)(c3cc4c(cc3OC)N(C=O)[C@H]3[C@@](O)(C(=O)OC)[C@H](OC(C)=O)[C@]5(CC)C=CCN6CC[C@]43[C@@H]65)C2)C1 [Vincristine]
- Effect of inducing apoptosis by combined use of Telomestatin with another antitumor substance [1]: act synergistically

SMILES: COc1cccc2c1C(=O)c1c(O)c3c(c(O)c1C2=O)C[C@@](O)(C(C)=O)C[C@@H]3O[C@H]1C[C@H](N)[C@H](O)[C@H](C)O1 [Daunorubicin]
- Effect of inducing apoptosis by combined use of Telomestatin with another antitumor substance [1]: act synergistically
